Source: US9073821B2, “Hydroxamic acid derivative” (priority 2010, dated 2015)
≈ marks a conversion by molar mass, not a printed value. Where two headings read alike, the source gives them in different places.

Experiments:
[1] = system: Pseudomonas aeruginosa strain TS88 (clinical isolate); assay: Antimicrobial activity, MIC by broth microdilution; type: cell-based; details: Table 1, 35° C., 18 hours, read-out: MIC Pseudomonas aeruginosa TS88 strain
Excerpt: Test 3: Evaluation of Antimicrobial Activity For minimum inhibitory concentration (MIC) measurement, the following broth microdilution method was applied as adapted from the standard procedure recommended by the CLSI (Clinical and Laboratory Standards Institute). The bacteria used were Pseudomonas aeruginosa strain TS88 (clinical isolate), E. coli strain ATCC25922, and Klebsiella pneumoniae strain ATCC13883. After culture overnight on a heart infusion agar medium, the cells of a test bacterium were scraped off and suspended to give a turbidity of level 0.5 on the McFarland scale; the suspension was then diluted 10 fold to prepare an inoculum solution. A 0.005 mL aliquot of the inoculum solution was inoculated in a cation-adjusted Mueller-Hinton broth medium containing a test compound and cultured at 35° C. for 18 hours. A minimum drug concentration at which no cell growth was visible to the naked eye was designated as MIC.

[2] = target: Pseudomonas aeruginosa LpxC enzyme (Pseudomonas aeruginosa (strain ATCC 15692 / DSM 22644 / CIP 104116 / JCM 14847 / LMG 12228 / 1C / PRS 101 / PAO1), UniProt P47205); assay: biochemical; type: biochemical
[3] = Table 1, read-out: Pseudomonas aeruginosa LpxC IC50
[4] = class symbols A/B/C by IC50, Table 3, read-out: Enzyme inhibitory activity (inhibitory activity on Pseudomonas aeruginosa LpxC enzyme)

Row | SMILES | MIC [1] [µg/mL] | IC50 [2, 3] [nM] | IC50 [2, 4] [nM]
1 | CNC(=O)C(C(=O)NO)N(C)C(=O)c1ccc(-c2ccccc2)cc1 (centres unmarked) [Compound 1, 2-[(Biphenyl-4-ylcarbonyl)(methyl)amino]-N-hydroxy-N′-methylpropanediamide] | 0.5 (≈ 1.46 µM) | 7.7 | –
2 | CNC(=O)C(C(=O)NO)N(C)C(=O)c1ccc(-c2ccc(NC)cc2)cc1 (centres unmarked) [Compound 2, N-hydroxy-N′-methyl-2-(methyl {[4′-(methylamino)biphenyl-4-yl]carbonyl}amino)propanediamide] | 0.5 (≈ 1.35 µM) | 7.1 | –
3 | CNC(=O)C(C(=O)NO)N(C)C(=O)c1ccc(-c2ccc(OC)cc2)cc1 (centres unmarked) [Compound 3] | 0.5 (≈ 1.35 µM) | 3.3 | –
4 | CNC(=O)C(C(=O)NO)N(C)C(=O)c1ccc(-c2ccc(COC)cc2)cc1 (centres unmarked) [Compound 4, N-hydroxy-2-[{[4′-(methoxymethyl)biphenyl-4-yl]carbonyl}(methyl)amino]-N′-methylpropanediamide] | 1 (≈ 2.59 µM) | 6.1 | –
5 | CNC(=O)C(C(=O)NO)N(C)C(=O)c1ccc(-c2ccc(C)cc2)cc1 (centres unmarked) [Compound 5, N-hydroxy-N′-methyl-2-{methyl[(4′-methylbiphenyl-4-yl)carbonyl]amino}propanediamide] | 0.25 (≈ 0.703 µM) | 3.7 | –
6 | CNC(=O)C(C(=O)NO)N(C)C(=O)c1ccc(-c2ccc(F)cc2)cc1 (centres unmarked) [Compound 6, 2-{[(4′-fluorobiphenyl-4-yl)carbonyl](methyl)amino}-N-hydroxy-N′-methylpropanediamide] | 1 (≈ 2.78 µM) | 7.1 | –
7 | CNC(=O)C(C(=O)NO)N(C)C(=O)c1ccc(-c2ccc(OCCCN3CCOCC3)cc2)cc1 (centres unmarked) [Compound 7, N-hydroxy-N′-methyl-2-[methyl({4′-[3-(morpholin-4-yl)propoxy]biphenyl-4-yl}carbonyl)amino]propanediamide] | 2 (≈ 4.13 µM) | – | –
8 | CNC(=O)C(C(=O)NO)N(C)C(=O)c1ccc(-c2ccc(OCCCN3CCOCC3)cc2)cc1.Cc1ccc(S(=O)(=O)O)cc1 (centres unmarked) [Compound 7b, N-hydroxy-N′-methyl-2-[methyl({4′-[3-(morpholin-4-yl)propoxy]biphenyl-4-yl}carbonyl)amino]propanediamide 4-methylbenzenesulfonate] | 2 | – | –
9 | CNC(=O)C(C(=O)NO)N(C)C(=O)c1ccc(-c2ccc3c(c2)OCO3)cc1 (centres unmarked) [Compound 8, 2-{[4-(1,3-benzodioxol-5-yl)benzoyl](methyl)amino}-N-hydroxy-N′-methylpropanediamide] | 0.5 (≈ 1.3 µM) | 5 | –
10 | CNC(=O)C(C(=O)NO)N(C)C(=O)c1ccc(-c2ccc3c(c2)CCN3C)cc1 (centres unmarked) [Compound 40, N-hydroxy-N′-methyl-2-{methyl[4-(1-methyl-2,3-dihydro-1H-indol-5-yl)benzoyl]amino}propanediamide] | 1 (≈ 2.52 µM) | 4.7 | –
11 | CNC(=O)C(C(=O)NO)N(C)C(=O)c1ccc(-c2ccc(N(C)C)cc2)cc1 (centres unmarked) [Compound 43, 2-[{[4′-(dimethylamino)biphenyl-4-yl]carbonyl}(methyl)amino]-N-hydroxy-N′-methylpropanediamide] | 1 (≈ 2.6 µM) | 7.2 | –
12 | CNC(=O)C(C(=O)NO)N(C)C(=O)c1ccc(-c2ccc(OC(F)(F)F)cc2)cc1 (centres unmarked) [Compound 52, N-hydroxy-N′-methyl-2-(methyl {[4′-(trifluoromethoxy)biphenyl-4-yl]carbonyl}amino)propanediamide] | 1 (≈ 2.35 µM) | 4.6 | –
13 | CNC(=O)C(C(=O)NO)N(C)C(=O)c1ccc(-c2ccc(C(F)(F)F)cc2)cc1 (centres unmarked) [Compound 56, N-hydroxy-N′-methyl-2-(methyl {[4′-(trifluoromethyl)biphenyl-4-yl]carbonyl}amino)propanediamide] | 1 (≈ 2.44 µM) | 6.7 | –
14 | CNC(=O)C(C(=O)NO)N(C)C(=O)c1ccc(-c2ccc(NCCCCCN3CCOCC3)cc2)cc1 (centres unmarked) [Compound 58, N-hydroxy-N′-methyl-2-{methyl[(4′-{[5-(morpholin-4-yl)pentyl]amino}biphenyl-4-yl)carbonyl]amino}propanediamide] | 4 (≈ 7.82 µM) | 8.3 | –
15 | CNC(=O)C(C(=O)NO)N(C)C(=O)c1ccc(-c2ccccc2)c(F)c1 (centres unmarked) [Compound 61, 2-{[(2-fluorobiphenyl-4-yl)carbonyl](methyl)amino}-N-hydroxy-N′-methylpropanediamide] | 2 (≈ 5.57 µM) | 9.2 | –
16 | CNc1ccc(-c2ccc(C(=O)N(C)C(C(=O)NO)C(=O)NCc3cc(C)on3)cc2)cc1 (centres unmarked) [Compound 77, N-hydroxy-2-(methyl {[4′-(methylamino)biphenyl-4-yl]carbonyl}amino)-N′-[(5-methyl-1,2-oxazol-3-yl)methyl]propanediamide] | 4 (≈ 8.86 µM) | 7.5 | –

Row | SMILES | MIC [1] [µg/mL] | IC50 [2, 3] [nM] | IC50 [2, 4] [nM]
17 | CNC(=O)C(C(=O)NO)N(C)C(=O)c1ccc(-c2ccc3c(c2)OC(OC)O3)cc1 (centres unmarked) [Compound 94, N-hydroxy-2-{[4-(2-methoxy-1,3-benzodioxol-5-yl)benzoyl](methyl)amino}-N′-methylpropanediamide] | 2 (≈ 4.81 µM) | 5.6 | –
18 | CNC(=O)C(C(=O)NO)N(C)C(=O)c1ccc(-c2ccc(OCCO)cc2)cc1 (centres unmarked) [Compound 153, N-hydroxy-2-[{[4′-(2-hydroxyethoxy)biphenyl-4-yl]carbonyl}(methyl)amino]-N′-methylpropanediamide] | 2 (≈ 4.98 µM) | 5.7 | –
19 | Cc1cc(CNC(=O)C(C(=O)NO)N(C)C(=O)c2ccc(-c3ccccc3)cc2)no1 (centres unmarked) [Compound 172, 2-[(Biphenyl-4-ylcarbonyl)(methyl)amino]-N-hydroxy-N′-[(5-methyl-1,2-oxazol-3-yl)methyl]propanediamide] | 2 (≈ 4.73 µM) | 7.1 | –
20 | CNC(=O)C(C(=O)NO)N(C)C(=O)c1ccc(-c2ccc3c(c2)CCO3)cc1 (centres unmarked) [Compound 188, 2-{[4-(2,3-dihydro-1-benzofuran-5-yl)benzoyl](methyl)amino}-N-hydroxy-N′-methylpropanediamide] | 0.5 (≈ 1.3 µM) | 5 | –
21 | CNC(=O)C(C(=O)NO)N(C)C(=O)c1ccc(C#Cc2ccccc2)cc1 (centres unmarked) [Compound 218, N-hydroxy-N′-methyl-2-{methyl[4-(phenylethynyl)benzoyl]amino}propanediamide] | 1 (≈ 2.74 µM) | 7.2 | –
22 | CCOC1CN(Cc2ccc(C#Cc3ccc(C(=O)N(C)C(C(=O)NC)C(=O)NO)cc3C)cc2)C1 (centres unmarked) [Compound 582, 2-[{[4-({4-[(3-ethoxyazetidin-1-yl)methyl]phenyl}ethynyl)-3-methylphenyl]carbonyl}(methyl)amino]-N-hydroxy-N′-methylpropanediamide] | – | – | < 10
23 | CNC(=O)[C@@](C)(C(=O)NO)N(C)C(=O)c1ccc(C#Cc2coc(CN3CCCOCC3)c2)cc1 [Compound 583, (2S)-N-hydroxy-N′,2-dimethyl-2-{methyl[(4-{[5-(1,4-oxazepan-4-ylmethyl)furan-3-yl]ethynyl}phenyl)carbonyl]amino}propanediamide] | – | – | < 10
24 | CCOC1CN(Cc2cc(C#Cc3ccc(C(=O)N(C)[C@@](C)(C(=O)NC)C(=O)NO)cc3)co2)C1 [Compound 584, (2S)-2-[{[4-({5-[(3-ethoxyazetidin-1-yl)methyl]furan-3-yl}ethynyl)phenyl]carbonyl}(methyl)amino]-N-hydroxy-N′,2-dimethylpropanediamide] | – | – | < 10
25 | CNC(=O)[C@@](C)(C(=O)NO)N(C)C(=O)c1ccc(C#Cc2csc(C)n2)cc1 [Compound 586, (2S)-N-hydroxy-N′,2-dimethyl-2-[methyl({4-[(2-methyl-1,3-thiazol-4-yl)ethynyl]phenyl}carbonyl)amino]propanediamide] | – | – | 10 to 100
26 | CNC(=O)[C@@](C)(C(=O)NO)N(C)C(=O)c1ccc(C#C/C=C/C2CCOCC2)cc1 [Compound 590, (2S)-N-hydroxy-N′,2-dimethyl-2-(methyl {4-[(3E)-4-(tetrahydro-2H-pyran-4-yl)but-3-en-1-yn-1-yl]benzoyl}amino)propanediamide] | – | – | < 10
27 | CNC(=O)[C@@](C)(C(=O)NO)N(C)C(=O)c1ccc(C#Cc2coc(CN3CCOCC3)c2)cc1 [Compound 592, (2S)-N-hydroxy-N′,2-dimethyl-2-[methyl(4-{[5-(morpholin-4-ylmethyl)furan-3-yl]ethynyl}benzoyl)amino]propanediamide] | – | – | < 10
28 | CNC(=O)[C@@](C)(C(=O)NO)N(C)C(=O)c1ccc(C#C/C=C/C2CC2COC)cc1 (stereo partly drawn) [Compound 596, (2S)-N-hydroxy-2-[(4-{(3E)-4-[2-(methoxymethyl)cyclopropyl]but-3-en-1-yn-1-yl}benzoyl)(methyl)amino]-N′,2-dimethylpropanediamide] | – | – | < 10
29 | CNC(=O)[C@@](C)(C(=O)NO)N(C)C(=O)c1ccc(C#C/C=C/CCCOC)cc1 [Compound 597, (2S)-N-hydroxy-2-[{4-[(3E)-7-methoxyhept-3-en-1-yn-1-yl]benzoyl}(methyl)amino]-N′,2-dimethylpropanediamide] | – | – | < 10
30 | CCOCc1cc(C#Cc2ccc(C(=O)N(C)[C@@](C)(C(=O)NC)C(=O)NO)cc2)co1 [Compound 612, (2S)-2-[(4-{[5-(ethoxymethyl)furan-3-yl]ethynyl}benzoyl)(methyl)amino]-N-hydroxy-N′,2-dimethylpropanediamide] | – | – | < 10
31 | CNC(=O)[C@@](C)(C(=O)NO)N(C)C(=O)c1ccc(C#Cc2coc(CO)c2)cc1 [Compound 616, (2S)-N-hydroxy-2-[(4-{[5-(hydroxymethyl)furan-3-yl]ethynyl}benzoyl)(methyl)amino]-N′,2-dimethylpropanediamide] | – | – | < 10
